The values that follow come from PubChem BioAssay (NCI).

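In this assay, cells in 96-well plates receive the compound at five concentrations for 48 hours. Endpoints are linearly interpolated between the surrounding concentrations. TGI denotes the concentration required for complete inhibition of growth.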

Some test systems named below: HOP-92 NSCLC; HL-60(TB) leukemia; SK-MEL-5 melanoma; K-562 leukemia; SK-MEL-2 melanoma; OVCAR-4 ovarian; UACC-62 melanoma; SW-620 colon; UACC-257 melanoma; SF-268 CNS; HOP-62 NSCLC; U251 CNS; CCRF-CEM leukemia.
Holding throughout (assay): NCI tumour cell line growth inhibition, 48 h

`N/C(=N/O)c1cn(C2OC(CO)C(O)C2O)c2ncnc(NO)c12` (centres undefined): the TGI in the experiment on HOP-92 NSCLC is greater than 45.4 µM; in the experiment on HL-60(TB) leukemia it was 0.76 µM; with SK-MEL-5 melanoma, 0.892 µM; with K-562 leukemia it was greater than 100 µM; with SK-MEL-2 melanoma it was 0.176 µM; with OVCAR-4 ovarian it was 5.98 µM. For the same molecule, the TGI with UACC-62 melanoma is 1.66 µM; in the experiment on SW-620 colon, greater than 46.1 µM; with UACC-257 melanoma, 4.4 µM; with SF-268 CNS, greater than 100 µM; with HOP-62 NSCLC it was greater than 100 µM; in the experiment on U251 CNS, 54.1 µM.

As for `COC(=O)[C@H]1[C@H](OC(=O)[C@@H](OC)c2ccccc2)ON2CC[C@@H](OC(=O)c3ccccc3)[C@H]12`, the TGI is greater than 100 µM in the experiment with CCRF-CEM leukemia; 66 µM in the experiment on HOP-92 NSCLC; greater than 100 µM with HL-60(TB) leukemia; greater than 100 µM with SK-MEL-5 melanoma; greater than 100 µM with K-562 leukemia; greater than 100 µM in the experiment with SK-MEL-2 melanoma. The TGI is greater than 100 µM in the experiment with OVCAR-4 ovarian; 28 µM in the experiment on UACC-62 melanoma; greater than 100 µM in the experiment with UACC-257 melanoma; greater than 100 µM in the experiment with SF-268 CNS; greater than 100 µM with HOP-62 NSCLC; greater than 100 µM in the experiment on U251 CNS.

Regarding `N#CCCN(CCC#N)c1ccc(/C=C2\N=C(c3ccccc3)N(NC(=O)c3ccncc3)C2=O)cc1`, the TGI in the experiment on HOP-92 NSCLC, in the experiment with HL-60(TB) leukemia, in the experiment on SK-MEL-5 melanoma, in the experiment on K-562 leukemia, in the experiment on SK-MEL-2 melanoma and with OVCAR-4 ovarian was greater than 100 µM throughout. For the same molecule, the TGI in the experiment on UACC-62 melanoma, in the experiment on SW-620 colon, with UACC-257 melanoma, in the experiment on SF-268 CNS, in the experiment on HOP-62 NSCLC and in the experiment with U251 CNS was greater than 100 µM throughout.

In the case of `COC(=O)C1CCCCCCCCCCC12SCCCS2` (centres undefined), the TGI came out at 51.1 µM with CCRF-CEM leukemia; 39.9 µM in the experiment with HOP-92 NSCLC; 41.9 µM with SK-MEL-5 melanoma; 56.7 µM in the experiment on K-562 leukemia; 41.9 µM in the experiment on SK-MEL-2 melanoma; 38.7 µM in the experiment with OVCAR-4 ovarian. The TGI in the experiment with UACC-62 melanoma was found to be 59.4 µM; in the experiment with SW-620 colon, 81.9 µM; in the experiment with UACC-257 melanoma, 40.2 µM; in the experiment with SF-268 CNS, 56.5 µM; with HOP-62 NSCLC it was 41.2 µM; in the experiment with U251 CNS, 32.1 µM.

As to `CC(C)(C)OC(=O)N1CCC[C@H]1CSC[C@@H]1CCCN1C(=O)OC(C)(C)C`, the TGI is 44.8 µM with CCRF-CEM leukemia; 39.5 µM with HOP-92 NSCLC; 32.7 µM with SK-MEL-5 melanoma; 84.7 µM in the experiment with K-562 leukemia; 40.6 µM with SK-MEL-2 melanoma; greater than 100 µM with OVCAR-4 ovarian. The TGI in the experiment with UACC-62 melanoma is 57.2 µM; in the experiment with SW-620 colon, 96.8 µM; with UACC-257 melanoma, 90.8 µM; with SF-268 CNS it was greater than 100 µM; with HOP-62 NSCLC, greater than 100 µM; in the experiment with U251 CNS, 90.7 µM.

`O=C1C(c2c(O)n(-c3ccccc3)c3ccccc23)=Nc2ccccc21`: the TGI with CCRF-CEM leukemia was greater than 100 µM; in the experiment with HOP-92 NSCLC it was 84.9 µM; in the experiment on SK-MEL-5 melanoma, 69.8 µM; in the experiment on K-562 leukemia, greater than 100 µM; in the experiment with SK-MEL-2 melanoma it was 97.3 µM; in the experiment with OVCAR-4 ovarian, greater than 100 µM. Moreover, the TGI in the experiment on UACC-62 melanoma, in the experiment with SW-620 colon, in the experiment on UACC-257 melanoma, in the experiment on SF-268 CNS, with HOP-62 NSCLC and in the experiment on U251 CNS was greater than 100 µM throughout.

Regarding `O=C1c2cc([N+](=O)[O-])cnc2S(=O)(=O)N1c1ccc(Oc2ccccc2)cc1`, the TGI in the experiment on CCRF-CEM leukemia, in the experiment with HOP-92 NSCLC, in the experiment with HL-60(TB) leukemia, with K-562 leukemia, in the experiment with SK-MEL-2 melanoma and in the experiment on OVCAR-4 ovarian was greater than 100 µM in each case. Further, the TGI with UACC-62 melanoma, with SW-620 colon, in the experiment on HOP-62 NSCLC and with U251 CNS was greater than 100 µM each time.

Consider `O=C(O)C1CCCCN1CCc1c[nH]c2ccccc12` (centres undefined), for which the TGI in the experiment on CCRF-CEM leukemia, with HOP-92 NSCLC, with HL-60(TB) leukemia, in the experiment with K-562 leukemia, in the experiment on SK-MEL-2 melanoma and with OVCAR-4 ovarian was greater than 100 µM throughout. In addition, the TGI in the experiment with UACC-62 melanoma, with SW-620 colon, with UACC-257 melanoma, in the experiment on SF-268 CNS, in the experiment on HOP-62 NSCLC and with U251 CNS was greater than 100 µM in each case.

For the molecule `CCOC(=O)CC(=O)Nc1c(C(=O)OCC)sc2nc(SC)nc(Nc3ccc(OC)c(OC)c3)c12`, the TGI with CCRF-CEM leukemia is greater than 100 µM; in the experiment on HOP-92 NSCLC it was 33.7 µM; with HL-60(TB) leukemia it was greater than 100 µM; in the experiment with SK-MEL-5 melanoma it was greater than 100 µM; in the experiment with SK-MEL-2 melanoma, greater than 100 µM; in the experiment with OVCAR-4 ovarian it was greater than 100 µM. In addition, the TGI in the experiment on UACC-62 melanoma was greater than 100 µM; with SW-620 colon it was greater than 100 µM; in the experiment with UACC-257 melanoma, greater than 100 µM; in the experiment with SF-268 CNS it was greater than 100 µM; in the experiment on U251 CNS, 25.1 µM.

As to `OCC1OC(NC(=S)NCSCCC(F)(F)C(F)(F)C(F)(F)C(F)(F)C(F)(F)C(F)(F)F)C(O)C(O)C1O` (centres undefined), the TGI in the experiment with CCRF-CEM leukemia is 91.3 µM; with HOP-92 NSCLC it was 66.4 µM; in the experiment with HL-60(TB) leukemia, greater than 100 µM; in the experiment with K-562 leukemia, 56.4 µM; in the experiment with SK-MEL-2 melanoma it was greater than 100 µM; in the experiment on OVCAR-4 ovarian, greater than 100 µM. For the same molecule, the TGI was greater than 100 µM in the experiment with UACC-62 melanoma; greater than 100 µM in the experiment with SW-620 colon; greater than 100 µM with UACC-257 melanoma; greater than 100 µM in the experiment with SF-268 CNS; greater than 100 µM with HOP-62 NSCLC; 46.6 µM with U251 CNS.

On to `CC1(C)O[C@@H]([C@@H](O)[C@H](O)C2SCCCS2)[C@@H](CO)O1`, for which the TGI in the experiment with CCRF-CEM leukemia, in the experiment on HOP-92 NSCLC, in the experiment with HL-60(TB) leukemia, in the experiment on SK-MEL-5 melanoma, in the experiment with K-562 leukemia and in the experiment on SK-MEL-2 melanoma was greater than 100 µM throughout. Also, the TGI in the experiment with UACC-62 melanoma, in the experiment with SW-620 colon, in the experiment on UACC-257 melanoma, with SF-268 CNS, in the experiment on HOP-62 NSCLC and with U251 CNS was greater than 100 µM in each case.
